Source: ChEMBL document CHEMBL4725293, “Synthesis of novel lignan-like compounds and their antimicrobial activity” (Bioorg Med Chem Lett, 2020)
≈ marks a conversion by molar mass, not a printed value. Values belong to the molecule of their own block, whether it stands above or below them. Calls of active or inactive are those of the source. The calls are words filed in the database; no cut-off is given here.

Experiments:
Pseudomonas aeruginosa = test: Antibacterial activity against Pseudomonas aeruginosa ATCC 27853 by broth microdilution method; assay type: functional
Staphylococcus aureus [1] = test: Antibacterial activity against Staphylococcus aureus ATCC 29213 by broth microdilution method; assay type: functional
Staphylococcus aureus [2] = test: Bactericidal activity against Staphylococcus aureus ATCC 29213 at 16 ug/ml measured at 24 hrs by time kill assay (reference value: 5.65 to 9.57); assay type: functional; conditions: dose 16 µg/ml
Staphylococcus aureus [3] = test: Bactericidal activity against Staphylococcus aureus ATCC 29213 at 16 ug/ml measured at 3 hrs by time kill assay (reference value: 5.65 to 9.57); assay type: functional; conditions: dose 16 µg/ml
Staphylococcus aureus [4] = test: Bactericidal activity against Staphylococcus aureus ATCC 29213 at 16 ug/ml measured at 1 hr by time kill assay (reference value: 5.65 to 9.57); assay type: functional; conditions: dose 16 µg/ml
Staphylococcus aureus [5] = test: Bactericidal activity against Staphylococcus aureus ATCC 29213 at 16 ug/ml measured at 6 hrs by time kill assay (reference value: 5.65 to 9.57); assay type: functional; conditions: dose 16 µg/ml
Staphylococcus aureus [6] = test: Bactericidal activity against Staphylococcus aureus ATCC 29213 at 16 ug/ml measured at 0 hrs by time kill assay (reference value: 5.65 to 9.57); assay type: functional; conditions: dose 16 µg/ml
Candida albicans = test: […] activity against Candida albicans ATCC 90028 by broth microdilution method; assay type: functional
Staphylococcus aureus [7] = test: Bactericidal activity against Staphylococcus aureus ATCC 29213 at 32 ug/ml measured at 1 hr by time kill assay (reference value: 5.65 to 9.57); assay type: functional; conditions: dose 32 µg/ml
[8] = system: Staphylococcus epidermidis; test: Antibacterial activity against Staphylococcus epidermidis ATCC 35984 by broth microdilution method; assay type: functional
[9] = system: Staphylococcus epidermidis; test: Inhibition of biofilm formation in Staphylococcus epidermidis ATCC 35984 at 8 to 32 ug/ml by crystal violet staining based assay relative to control; assay type: functional, organism-based; conditions: dose microg/ml 8-32
[10] = Cytotoxicity against human HaCaT cells assessed as reduction in cell viability at 16 ug/ml incubated for 24 hrs by MTT assay; assay type: cell-based; conditions: at 16 µg/mL, read-out: INH
Staphylococcus aureus [11] = test: Bactericidal activity against Staphylococcus aureus ATCC 29213 at 32 ug/ml measured at 6 hrs by time kill assay (reference value: 5.65 to 9.57); assay type: functional; conditions: dose 32 µg/ml
[12] = system: Staphylococcus epidermidis; test: Induction of preformed biofilm disruption in Staphylococcus epidermidis ATCC 35984 at 64 ug/ml by crystal violet staining based assay relative to control; assay type: functional; conditions: dose 64.0 µg/ml
[13] = system: Staphylococcus epidermidis; test: Inhibition of biofilm formation in Staphylococcus epidermidis ATCC 35984 at 64 ug/ml by crystal violet staining based assay relative to control; assay type: functional
[14] = Cytotoxicity against human HaCaT cells assessed as reduction in cell viability at 32 ug/ml incubated for 24 hrs by MTT assay; assay type: cell-based; conditions: at 32 µg/mL, read-out: INH
Staphylococcus aureus [15] = test: Bactericidal activity against Staphylococcus aureus ATCC 29213 at 32 ug/ml measured at 3 hrs by time kill assay (reference value: 5.65 to 9.57); assay type: functional; conditions: dose 32 µg/ml
Staphylococcus aureus [16] = test: Bactericidal activity against Staphylococcus aureus ATCC 29213 at 32 ug/ml measured at 24 hrs by time kill assay (reference value: 5.65 to 9.57); assay type: functional; conditions: dose 32 µg/ml
Staphylococcus aureus [17] = test: Bactericidal activity against Staphylococcus aureus ATCC 29213 at 32 ug/ml measured at 0 hrs by time kill assay (reference value: 5.65 to 9.57); assay type: functional; conditions: dose 32 µg/ml

Structure (SMILES): NC[C@H]1O[C@H](O[C@H]2[C@H](O)[C@@H](O[C@H]3O[C@H](CO)[C@@H](O)[C@H](N)[C@H]3O)[C@H](N)C[C@@H]2N)[C@H](N)C[C@@H]1O [TOBRAMYCIN]
MIC (Pseudomonas aeruginosa): 4 µg/mL (≈ 8.56 µM)

Structure (SMILES): C[C@@H]1[C@H](O)[C@@H](C)/C=C/C=C/C=C/C=C/C=C/C=C/C=C/[C@H](O[C@@H]2O[C@H](C)[C@@H](O)[C@H](N)[C@@H]2O)C[C@@H]2O[C@](O)(C[C@@H](O)C[C@@H](O)[C@H](O)CC[C@@H](O)C[C@@H](O)CC(=O)O[C@H]1C)C[C@H](O)[C@H]2C(=O)O [AMPHOTERICIN B]
MIC (Candida albicans): 0.25 µg/mL (≈ 0.271 µM)

Structure (SMILES): Oc1ccc(Cc2cocc2Cc2ccc(O)cc2)cc1
Activity (Staphylococcus aureus [7]): 5.77 log10CFU/ml | MIC [8]: 32 µg/mL (≈ 114 µM) | inhibition [9]: inactive | cytotoxicity at 24 h, 16 ug/ml [10]: 25% | Activity (Staphylococcus aureus [11]): 7.77 log10CFU/ml | inhibition [12]: 25% | inhibition at 64 µg/mL [13]: 33% | cytotoxicity at 24 h, 32 ug/ml [14]: 40% | MIC (Candida albicans): 32 µg/mL (≈ 114 µM) | Activity (Staphylococcus aureus [15]): 6.38 log10CFU/ml | MIC (Pseudomonas aeruginosa): > 128 µg/mL | Activity (Staphylococcus aureus [16]): 8.86 log10CFU/ml | Activity (Staphylococcus aureus [17]): 5.74 log10CFU/ml | MIC (Staphylococcus aureus [1]): 32 µg/mL (≈ 114 µM)

Structure (SMILES): CC(=O)Oc1ccc(Cc2cocc2Cc2ccc(OC(C)=O)cc2)cc1
MIC (Pseudomonas aeruginosa): > 128 µg/mL | MIC (Staphylococcus aureus [1]): > 128 µg/mL

Structure (SMILES): COc1ccc(CC2=C(Cc3ccc(OC)cc3)C(O)OC2=O)cc1 (configuration not stated)
MIC (Pseudomonas aeruginosa): > 128 µg/mL | MIC (Staphylococcus aureus [1]): > 128 µg/mL

Structure (SMILES): COc1ccc(Cc2cocc2Cc2ccc(O)cc2)cc1
Activity (Staphylococcus aureus [2]): 1.24 log10CFU/ml | Activity (Staphylococcus aureus [3]): 1.6 log10CFU/ml | MIC [8]: 16 µg/mL (≈ 54.4 µM) | inhibition [9]: inactive | cytotoxicity at 24 h, 16 ug/ml [10]: 50% | inhibition [12]: 25% | inhibition at 64 µg/mL [13]: 33% | Activity (Staphylococcus aureus [4]): 2.2 log10CFU/ml | MIC (Candida albicans): 16 µg/mL (≈ 54.4 µM) | Activity (Staphylococcus aureus [5]): 1.35 log10CFU/ml | MIC (Pseudomonas aeruginosa): > 128 µg/mL | Activity (Staphylococcus aureus [6]): 5.75 log10CFU/ml | MIC (Staphylococcus aureus [1]): 16 µg/mL (≈ 54.4 µM)

Structure (SMILES): COc1ccc(CC2C(=O)OC3OC32Cc2ccc(OC)cc2)cc1 (configuration not stated)
MIC (Pseudomonas aeruginosa): > 128 µg/mL | MIC (Staphylococcus aureus [1]): > 128 µg/mL

Second part, led by results:

MIC (Pseudomonas aeruginosa): > 128 µg/mL | MIC (Staphylococcus aureus [1]): 64 µg/mL (≈ 228 µM)
Structure (SMILES): Oc1ccc(Cc2cocc2Cc2ccccc2O)cc1

MIC (Pseudomonas aeruginosa): > 128 µg/mL | MIC (Staphylococcus aureus [1]): > 128 µg/mL
Structure (SMILES): O=C1OC(O)C(Cc2ccc(O)cc2)=C1Cc1ccc(O)cc1 (configuration not stated)

MIC (Pseudomonas aeruginosa): > 128 µg/mL | MIC (Staphylococcus aureus [1]): > 128 µg/mL
Structure (SMILES): COc1ccc(Cc2cocc2Cc2ccccc2OC)cc1

MIC (Pseudomonas aeruginosa): > 128 µg/mL | MIC (Staphylococcus aureus [1]): 16 µg/mL (≈ 54.4 µM)
Structure (SMILES): COc1ccc(Cc2cocc2Cc2ccccc2O)cc1
Activity (Staphylococcus aureus [2]): 1.56 log10CFU/ml | Activity (Staphylococcus aureus [3]): 1.94 log10CFU/ml | Activity (Staphylococcus aureus [4]): 2.47 log10CFU/ml | Activity (Staphylococcus aureus [5]): 1.61 log10CFU/ml | Activity (Staphylococcus aureus [6]): 5.7 log10CFU/ml

MIC (Pseudomonas aeruginosa): > 128 µg/mL | MIC (Staphylococcus aureus [1]): > 128 µg/mL
Structure (SMILES): COc1ccc(CC23OC2OC2OC23Cc2ccc(OC)cc2)cc1 (configuration not stated)

MIC (Pseudomonas aeruginosa): > 128 µg/mL | MIC (Staphylococcus aureus [1]): > 128 µg/mL
Structure (SMILES): COc1ccc(Cc2cocc2Cc2ccc(OC)cc2)cc1
